Legend:
monoclonal antibody CA1 = assay: competitive ELISA, inhibition of binding of antibody CA1 to structure 1a,b-KLH conjugate; set-up: species or system mouse; details: for pmol of compound needed for 50% inhibition of binding in the competitive ELISA, CA1: plate coated with structure 1a,b-KLH conjugate
Excerpt: (§1) Screening for Antibody Production. In order to screen the fused cells for the production of antibody specific for the cyclic deoxyguanosine adducts, an enzyme-linked immunosorbent assay ("ELISA") may be used. ELISA links soluble antigens to insoluble antibodies or soluble antibodies to solid phase antigens in a manner that allows both immunolgical and enzymatic activity to be retained.
(§2) ELISA techniques for antigen or antibody quantification are well-known to the art. By way of example, wells of a 96-well polystyrene ELISA plate may be coated with 10 ng of structure a, b-KLH conjugate, diluted in Phosphate buffered saline (PBS), for 1 h at room temperature. The wells may be washed twice with PBS containing 0.1% Tween 20 and twice with distilled H2 O. From this point all reagents may be diluted in PBS containing 0.1% bovine serum albumin ("BSA"). Wells are filled with 50 μl of PBS-BSA followed by 50 μl of culture supernatant and incubated at room temperature for 1 h. For competitive ELISA, adduct standards or test samples are mixed with the monoclonal antibody and added to the well. The wells are washed and 100 μl of alkaline phosphatase-labeled goat anti-mouse 1 gG antibody (Kirkegaard & Perry Laboratories, Inc., Gaithersburg, Md.) are added to each well and incubated at room temperature for 1 h. After washing, 100 μl of substrate solution (1 mg/ml of p-nitrophenylphosphate in 1M diethanolamine buffer, pH 9.8) are added to each well and incubated at room temperature for 30 min. […] In quantitative experiments the concentration of unknown samples may be determined by comparison to a standard curve relating the log of the inhibitor concentration to the logit of the percentage of inhibition [formula]
(§3) Using the above-identified procedures, a single mouse was boosted with the structure 1a,b-KLH conjugate for 4 consecutive days and the fusion was performed on the fifth day.

monoclonal antibody CA2 = assay: competitive ELISA, inhibition of binding of antibody CA2 to structure 1a,b-KLH conjugate; set-up: species or system mouse; details: for pmol of compound needed for 50% inhibition of binding in the competitive ELISA, CA2: plate coated with structure 1a,b-KLH conjugate
Excerpt: as §1, §2, §3

monoclonal antibody CA4 = assay: competitive ELISA, inhibition of binding of antibody CA4 to structure 1a,b-KLH conjugate; set-up: species or system mouse; details: plate coated with structure 1a,b-KLH conjugate
Excerpt: as §1, §2, §3

[1] = system: the four antibodies (CA1, CA2, CA3, CA4); assay: competitive ELISA, reactivity of the four antibodies; type: binding, mouse; details: all four antibodies; O6-methyldeoxyguanosine: with the exception of CA3
Excerpt: as §1, §2, §3

monoclonal antibody CA3 = assay: competitive ELISA, inhibition of binding of antibody CA3 to structure 1a,b-KLH conjugate; set-up: species or system mouse; details: for pmol of compound needed for 50% inhibition of binding in the competitive ELISA, CA3: plate coated with structure 1a,b-KLH conjugate
Excerpt: as §1, §2, §3

| SMILES | pmol of compound needed for 50% inhibition of binding in the competitive ELISA, CA1 (monoclonal antibody CA1) | pmol of compound needed for 50% inhibition of binding in the competitive ELISA, CA2 (monoclonal antibody CA2) | pmol of compound needed for 50% inhibition of binding in the competitive ELISA, CA4 (monoclonal antibody CA4) | reactivity / cross-reactivity with the four antibodies [1] | pmol of compound needed for 50% inhibition of binding in the competitive ELISA, CA3 (monoclonal antibody CA3) | affinity of antibody CA1 (monoclonal antibody CA1) | affinity / reactivity of antibody CA3 (monoclonal antibody CA3) | specificity of antibody CA2 (monoclonal antibody CA2) |
| --- | --- | --- | --- | --- | --- | --- | --- | --- |
| O=c1c2ncn([C@H]3C[C@H](O)[C@@H](CO)O3)c2nc2n1C(O)C(O)N2 (stereo partly drawn) [1e] | 113 pmol | 156 pmol | 41,470 pmol | Cross-reactivity | 22 pmol | – | – | – |
| Nc1nc2c(ncn2[C@H]2C[C@H](O)[C@@H](CO)O2)c(=O)[nH]1 [Deoxyguanosine, reference compound] | 2,564 pmol | 698 pmol | 5,370 pmol | significant cross-reactivity | 14 pmol | – | – | – |
| CC1CC(O)n2c(nc3c(ncn3[C@H]3C[C@H](O)[C@@H](CO)O3)c2=O)N1 (mixture of isomers) [1a, 8R, 6R- and 8S, 6S-3-(2-deoxy-3-β-erythro-pentofuranosyl) 5,6,7,8-tetrahydro-8-hydroxy-6-methylpyrimido(1,2-a)purine-10(3H)one] | 12.8 pmol | 17 pmol | 10 pmol | strongest | 0.2 pmol | lower affinity | highest affinity of the four antibodies | – |
| Nc1ncnc2c1ncn2[C@H]1C[C@H](O)[C@@H](CO)O1 [Deoxyadenosine, reference compound] | > 80,000 pmol | > 80,000 pmol | > 80,000 pmol | – | > 80,000 pmol | – | – | – |
| O=c1c2ncn([C@H]3C[C@H](O)[C@@H](CO)O3)c2nc2n1CCC(O)N2 (stereo partly drawn) [1c] | 90 pmol | 9 pmol | 112 pmol | Cross-reactivity | 5 pmol | – | less reactive than the above three molecules | – |
| CC1CC(O)n2c(nc3c(ncn3[C@H]3C[C@H](O)[C@@H](CO)O3)c2=O)N1 (mixture of isomers) [1b, 8R, 6R- and 8S, 6S-3-(2-deoxy-3-β-erythro-pentofuranosyl) 5,6,7,8-tetrahydro-8-hydroxy-6-methylpyrimido(1,2-a)purine-10(3H)one] | 0.2 pmol | 0.4 pmol | 0.9 pmol | strongest | 10 pmol | high apparent affinity | – | – |
| CC1CC(O)n2c(nc3[nH]cnc3c2=O)N1 (stereo not drawn) [1,base] | 8.6 pmol | 69 pmol | 30 pmol | Cross-reactivity | 143 pmol | – | – | – |
| O=c1c2ncn([C@H]3C[C@H](O)[C@@H](CO)O3)c2nc2n1C(O)CCN2 (stereo partly drawn) [1d] | 0.8 pmol | 0.2 pmol | 7.9 pmol | Cross-reactivity | 0.9 pmol | – | – | most specific |
| COc1nc(N)nc2c1ncn2[C@H]1C[C@H](O)[C@@H](CO)O1 [reference compound] | 56,790 pmol | 51,270 pmol | > 100,000 pmol | unreactive | 235 pmol | – | – | – |
| Nc1ccn([C@H]2C[C@H](O)[C@@H](CO)O2)c(=O)n1 [Deoxycytosine, reference compound] | > 110,000 pmol | > 110,000 pmol | > 110,000 pmol | – | > 110,000 pmol | – | – | – |
| Cc1cn([C@H]2C[C@H](O)[C@@H](CO)O2)c(=O)[nH]c1=O [Thymidine, reference compound] | > 100,000 pmol | > 100,000 pmol | > 100,000 pmol | – | > 100,000 pmol | – | – | – |

From patent publication US4923813A, “Monoclonal antibody-based immunoassay for cyclic DNA adducts resulting from exposure to crotonaldehyde or acrolein” (American Health Foundation, priority 1988, dated 1990)
